In assay [1] the test system is E. coli KL-16 (GSC strain 4245). Nature of the assay: In vitro antibacterial activity (MIC assay), broth microdilution. The conditions noted are these: Escherichia coli. The assay is classed as cell-based. Here is the method:
(§1) Minimal inhibitory concentration (MIC) has been an indicator of in vitro antibacterial activity widely used in the art. The in vitro antibacterial activity of the compounds was determined by the broth microdilution method described by the National Committee for Clinical Laboratory Standards (NCCLS) in the NCCLS Document M7-A5, Vol. 20, No. 2, “Methods for Dilution Antimicrobial Susceptibility Test for Bacteria that Grow Aerobically—Fifth Edition”, which is incorporated herein by reference.
(§2) In this method, an aliquot of test compound from an 11-point series of 2-fold serial dilutions of compounds in 100% DMSO was added to wells in microdilution plates. The test organisms were prepared by adjusting the turbidity of actively growing broth cultures so that the final concentration of test organism after addition to wells with or without compounds was approximately 5×10^5 CFU/mL.
(§3) Following inoculation of the microdilution plates, the plates were incubated at 35° C. for 16-24 h and then scored for bacterial growth. […] The amount of growth in the wells containing the test compound was compared with the amount of growth in the growth-control wells (no test compound used) in each plate, and with the amount of growth in the wells containing control compounds (such as ciprofloxacin). Compounds of the present invention were tested against several bacterial strains. The MIC values (in μg/mL) are presented in Table 1 for Gram-negative (E. coli KL-16 (GSC strain 4245); data marked as (*) was obtained with E. coli ATCC25922) and Gram-positive bacteria (S. aureus ATCC13709; S. pneumoniae ATCC49619).

The subject of a further assay is S. aureus ATCC13709. The description is as above. The assay is classed as cell-based. The settings on record: Staphylococcus aureus, ATCC13709; read-out: S. aureus ATCC13709 MIC. Here is the method: as §1, §2, §3
The subject of a further assay is S. pneumoniae ATCC49619. The description is as above. The assay is classed as cell-based. The conditions noted are these: Streptococcus pneumoniae, ATCC49619; read-out: S. pneumoniae ATCC49619 MIC. As for the experimental part: as §1, §2, §3
The target of the next assay is T1, E. coli DNA gyrase (Escherichia coli, UniProt P0AES4+P0AES6).
T1 construct: purchased John Innes Enterprises Ltd. (John Innes Centre, UK)
T1 sequence (P0AES4 whole entry, one chain of several): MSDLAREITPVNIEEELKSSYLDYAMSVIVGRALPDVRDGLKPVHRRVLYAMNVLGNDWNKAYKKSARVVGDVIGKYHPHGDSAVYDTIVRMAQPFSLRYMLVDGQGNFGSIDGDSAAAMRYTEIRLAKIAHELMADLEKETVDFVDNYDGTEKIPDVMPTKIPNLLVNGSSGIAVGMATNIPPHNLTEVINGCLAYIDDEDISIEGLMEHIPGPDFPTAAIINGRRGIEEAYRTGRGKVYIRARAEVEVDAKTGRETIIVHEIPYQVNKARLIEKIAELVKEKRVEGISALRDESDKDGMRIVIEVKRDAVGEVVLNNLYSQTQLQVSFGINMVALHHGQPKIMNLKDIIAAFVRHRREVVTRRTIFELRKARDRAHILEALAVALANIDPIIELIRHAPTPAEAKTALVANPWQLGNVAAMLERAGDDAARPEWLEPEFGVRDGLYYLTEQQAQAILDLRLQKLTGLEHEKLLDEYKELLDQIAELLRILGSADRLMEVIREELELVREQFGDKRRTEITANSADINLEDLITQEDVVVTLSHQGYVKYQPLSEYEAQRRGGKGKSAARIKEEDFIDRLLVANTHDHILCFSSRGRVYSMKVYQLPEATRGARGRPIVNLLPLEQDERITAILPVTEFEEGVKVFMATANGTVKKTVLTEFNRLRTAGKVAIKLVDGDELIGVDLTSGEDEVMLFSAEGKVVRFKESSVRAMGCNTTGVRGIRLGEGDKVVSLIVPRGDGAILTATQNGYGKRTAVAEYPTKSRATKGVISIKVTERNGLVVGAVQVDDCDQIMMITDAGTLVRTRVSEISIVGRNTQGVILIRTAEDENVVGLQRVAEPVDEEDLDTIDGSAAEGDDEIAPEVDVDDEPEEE
In words: DNA gyrase inhibition assay (supercoiling). The assay is classed as biochemical. The conditions noted are these: E. coli DNA gyrase supercoiling, visual inspection of gels; read-out: DNA Gyrase IC50 (converted). As for the experimental part: Inhibition of the supercoiling activity of E. coli DNA gyrase was determined using enzymes, buffers and substrates received from John Innes Enterprises Ltd. (John Innes Centre, UK). The reactions were performed according to the manufacturer's directions, with the following modifications.
DNA supercoiling reactions were carried out in a total reaction volume of 20 μL containing 250 ng of relaxed pBR322, 35 mM Tris-HCl (pH 7.5), 24 mM KCl, 4 mM MgCl2, 2 mM dithiothreitol, 1.8 mM spermidine, 1 mM ATP, 6.5% glycerol and 100 μg/mL albumin. Compounds diluted in 10% DMSO were added to the reaction mixture to reach a final concentration of 0.5% DMSO. Enzyme was diluted to […] in a solution of 50 mM Tris-HCl (pH 7.5), 100 mM KCl, 2 mM dithiothreitol, 1 mM EDTA, and 50% glycerol. Diluted enzyme (0.2 unit) was added to each reaction.
The reactions were incubated at 37° C. for 30 min. The reactions were then cooled to 0° C., followed by addition of 3 μL of 40% glycerol, 100 mM Tris-HCl (pH 7.5), 50 mM EDTA, 0.5% SDS and 0.1% bromophenol blue. Samples were separated on 1.0% agarose gels. Gels were stained with Ethidium bromide and photographed with a Stratagene Eagle Eye II.

The structures appear in SMILES notation. Converted amounts (≈) assume the structure as drawn.

Consider 19 molecules from patent US8242275B2, “Bicyclic pyrazole compounds as antibacterial agents” (Janssen Pharmaceutica NV, priority 2005, dated 2012).

`COc1ccc2nccc(-n3cc4c(n3)CCC(NC/C=C/c3ccc(F)cc3)C4)c2c1` (stereo not shown) [Example 57, [3-(4-Fluoro-phenyl)-allyl]-[2-(6-methoxy-quinolin-4-yl)-4,5,6,7-tetrahydro-2H-indazol-5-yl]-amine]: the MIC in assay [1] was 64 µg/mL (≈ 149 µM); with S. aureus ATCC13709, 1 µg/mL (≈ 2.33 µM); in the assay with S. pneumoniae ATCC49619, 2 µg/mL (≈ 4.67 µM). Also, at E. coli DNA gyrase, the IC50 was 4.67 µM.
`O=C1CSc2cc(F)c(C(=O)NC3CCc4nn(-c5cccc6ccccc56)cc4C3)cc2N1` (stereo not shown) [Example 33, 7-Fluoro-3-oxo-3,4-dihydro-2H-benzo[1,4]thiazine-6-carboxylic acid (2-naphthalen-1-yl-4,5,6,7-tetrahydro-2H-indazol-5-yl)-amide]: the MIC is greater than 128 µg/mL in assay [1], 1 µg/mL (≈ 2.12 µM) in the assay on S. aureus ATCC13709 and 8 µg/mL (≈ 16.9 µM) in the assay with S. pneumoniae ATCC49619. Also, the IC50 at E. coli DNA gyrase was 4.23 µM.
For the molecule `O=C1CSc2ccc(C(=O)NC3CCc4c(cnn4-c4cc(C(F)(F)F)nc5c(C(F)(F)F)cccc45)C3)cc2N1` (stereo not shown) [Example 96, 3-Oxo-3,4-dihydro-2H-benzo[1,4]thiazine-6-carboxylic acid [1-(2,8-bis-trifluoromethyl-quinolin-4-yl)-4,5,6,7-tetrahydro-1H-indazol-5-yl]-amide], the figures for the MIC (in assay [1]; in the assay on S. aureus ATCC13709; in the assay with S. pneumoniae ATCC49619) were 64 µg/mL (≈ 108 µM), 8 µg/mL (≈ 13.5 µM) and 32 µg/mL (≈ 54.1 µM), respectively. On E. coli DNA gyrase, the IC50 is greater than 6.76 µM.
The like results for `COc1ccc2nccc(-n3cc4c(n3)CCC(NC/C=C/c3cccnc3)C4)c2n1` (stereo not shown) [Example 47, [2-(6-Methoxy-[1,5]naphthyridin-4-yl)-4,5,6,7-tetrahydro-2H-indazol-5-yl]-(3-pyridin-3-yl-allyl)-amine] were, in that order, 128 µg/mL (≈ 310 µM), 1 µg/mL (≈ 2.42 µM), 4 µg/mL (≈ 9.7 µM) and 4.85 µM.
For `COc1ccc2nccc(-n3cc4c(n3)CCC(NC(=O)C(=O)c3cc5ccccc5[nH]3)C4)c2n1` (stereo not shown) [Example 9, 2-(1H-Indol-2-yl)-N-[2-(6-methoxy-[1,5]naphthyridin-4-yl)-4,5,6,7-tetrahydro-2H-indazol-5-yl]-2-oxo-acetamide], the values for the MIC (in assay [1]; in the assay on S. aureus ATCC13709; with S. pneumoniae ATCC49619) were greater than 128 µg/mL, 0.25 µg/mL (≈ 0.536 µM) and 4 µg/mL (≈ 8.57 µM), respectively. Besides, the IC50 at E. coli DNA gyrase was greater than 34.3 µM.
On to `COc1ccc2nccc(-n3cc4c(n3)CCC(NC(=O)c3cc5c(F)cc(F)cc5[nH]3)C4)c2c1` (stereo not shown) [Example 22, 4,6-Difluoro-1H-indole-2-carboxylic acid [2-(6-methoxy-quinolin-4-yl)-4,5,6,7-tetrahydro-2H-indazol-5-yl]-amide], for which the MIC was greater than 128 µg/mL in assay [1], 0.5 µg/mL (≈ 1.06 µM) in the assay with S. aureus ATCC13709 and 8 µg/mL (≈ 16.9 µM) in the assay on S. pneumoniae ATCC49619. For the same molecule, on E. coli DNA gyrase, the IC50 is 1.06 µM.
Take `COc1ccc2nccc(-n3cc4c(n3)CCC(NC(=O)c3nc5ccccc5[nH]3)C4)c2n1` (stereo not shown) [Example 8, 1H-Benzoimidazole-2-carboxylic acid [2-(6-methoxy-[1,5]naphthyridin-4-yl)-4,5,6,7-tetrahydro-2H-indazol-5-yl]-amide]: the figures for the MIC (in assay [1]; in the assay on S. aureus ATCC13709; in the assay with S. pneumoniae ATCC49619) were greater than 128 µg/mL, 0.25 µg/mL (≈ 0.569 µM) and 4 µg/mL (≈ 9.1 µM), respectively. The IC50 at E. coli DNA gyrase was greater than 36.4 µM.
Turning to `COc1ccc2nccc(-n3cc4c(n3)CCC(NC(=O)/C=C/c3cccc(Cl)c3)C4)c2n1` (stereo not shown) [Example 12, 3-(3-Chloro-phenyl)-N-[2-(6-methoxy-[1,5]naphthyridin-4-yl)-4,5,6,7-tetrahydro-2H-indazol-5-yl]-acrylamide], the MIC in assay [1] is greater than 128 µg/mL; with S. aureus ATCC13709, 0.25 µg/mL (≈ 0.544 µM); with S. pneumoniae ATCC49619, 8 µg/mL (≈ 17.4 µM). Also, the IC50 on E. coli DNA gyrase is 4.35 µM.
Take `COc1ccc2nccc(-n3cc4c(n3)CCC(NCCCc3ccc(C)cc3)C4)c2n1` (stereo not shown) [Example 49, [2-(6-Methoxy-[1,5]naphthyridin-4-yl)-4,5,6,7-tetrahydro-2H-indazol-5-yl]-(3-p-tolyl-propyl)-amine]: the MIC is 128 µg/mL (≈ 299 µM) in assay [1], less than 0.125 µg/mL in the assay on S. aureus ATCC13709 and 0.5 µg/mL (≈ 1.17 µM) with S. pneumoniae ATCC49619. Also, the IC50 at E. coli DNA gyrase was 7.02 µM.
In the same order, the values of `COc1ccc2nccc(-n3cc4c(n3)CC(NC(=O)c3cc5c(cc3F)SCC(=O)N5)CC4)c2c1` (stereo not shown) [Example 28, 7-Fluoro-3-oxo-3,4-dihydro-2H-benzo[1,4]thiazine-6-carboxylic acid [2-(6-methoxy-quinolin-4-yl)-4,5,6,7-tetrahydro-2H-indazol-6-yl]-amide] are 16 µg/mL (≈ 31.8 µM), 0.25 µg/mL (≈ 0.496 µM), 4 µg/mL (≈ 7.94 µM) and 3.97 µM.
For the molecule `COc1ccc2nccc(-n3cc4c(n3)CCC(NCC(=O)NCc3ccccc3)C4)c2n1` (stereo not shown) [Example 84, N-Benzyl-2-[2-(6-methoxy-[1,5]naphthyridin-4-yl)-4,5,6,7-tetrahydro-2H-indazol-5-ylamino]-acetamide], the results for the MIC (in assay [1]; with S. aureus ATCC13709; in the assay on S. pneumoniae ATCC49619) were greater than 128 µg/mL, 2 µg/mL (≈ 4.52 µM) and 16 µg/mL (≈ 36.2 µM), respectively.
On to `COc1ccc2nccc(-n3cc4c(n3)CCC(NC(=O)/C=C/c3cccs3)C4)c2c1` (stereo not shown) [Example 30, N-[2-(6-Methoxy-quinolin-4-yl)-4,5,6,7-tetrahydro-2H-indazol-5-yl]-3-thiophen-2-yl-acrylamide], for which the MIC in assay [1] was greater than 128 µg/mL; in the assay on S. aureus ATCC13709, 1 µg/mL (≈ 2.32 µM); with S. pneumoniae ATCC49619, 8 µg/mL (≈ 18.6 µM).
In the same order, the values of `COc1ccc2nccc(-n3cc4c(n3)CCC(NC(=O)/C=C/c3cc([N+](=O)[O-])ccc3Cl)C4)c2n1` (stereo not shown) [Example 94, 3-(2-Chloro-5-nitro-phenyl)-N-[2-(6-methoxy-[1,5]naphthyridin-4-yl)-4,5,6,7-tetrahydro-2H-indazol-5-yl]-acrylamide] are greater than 128 µg/mL, 2 µg/mL (≈ 3.96 µM) and greater than 128 µg/mL.
For `COc1ccc2nccc(-n3cc4c(n3)CCC(NC(=O)c3cc5c(F)cccc5s3)C4)c2c1` (stereo not shown) [Example 24, 4-Fluoro-benzo[b]thiophene-2-carboxylic acid [2-(6-methoxy-quinolin-4-yl)-4,5,6,7-tetrahydro-2H-indazol-5-yl]-amide], the MIC was greater than 128 µg/mL in assay [1], less than 0.125 µg/mL in the assay with S. aureus ATCC13709 and 4 µg/mL (≈ 8.46 µM) in the assay with S. pneumoniae ATCC49619.
In the case of `COc1ccc2nccc(-n3cc4c(n3)CCC(NC(=O)c3cc(F)c5c(c3)OCCO5)C4)c2c1` (stereo not shown) [Example 128, 8-Fluoro-2,3-dihydro-benzo[1,4]dioxine-6-carboxylic acid [2-(6-methoxy-quinolin-4-yl)-4,5,6,7-tetrahydro-2H-indazol-5-yl]-amide], the MIC is greater than 128 µg/mL in assay [1], 2 µg/mL (≈ 4.22 µM) with S. aureus ATCC13709 and 8 µg/mL (≈ 16.9 µM) in the assay on S. pneumoniae ATCC49619.
Consider `COc1ccc2nccc(-n3cc4c(n3)CCC(NC(=O)c3cc5c(cc3F)OCCO5)C4)c2n1` (stereo not shown) [Example 2, 7-Fluoro-2,3-dihydro-benzo[1,4]dioxine-6-carboxylic acid [2-(6-methoxy-[1,5]naphthyridin-4-yl)-4,5,6,7-tetrahydro-2H-indazol-5-yl]-amide], for which the MIC was greater than 128 µg/mL in assay [1], 0.5 µg/mL (≈ 1.05 µM) in the assay with S. aureus ATCC13709 and 8 µg/mL (≈ 16.8 µM) with S. pneumoniae ATCC49619.
As for `COc1ccc2nccc(-n3cc4c(n3)CCC(NCC(=O)Nc3cccc(C(F)(F)F)c3)C4)c2n1` (stereo not shown) [Example 122, 2-[2-(6-Methoxy-[1,5]naphthyridin-4-yl)-4,5,6,7-tetrahydro-2H-indazol-5-ylamino]-N-(3-trifluoromethyl-phenyl)-acetamide], the MIC is greater than 128 µg/mL in assay [1], 2 µg/mL (≈ 4.03 µM) with S. aureus ATCC13709 and 32 µg/mL (≈ 64.5 µM) in the assay on S. pneumoniae ATCC49619.
On to `COc1ccc2nccc(-n3cc4c(n3)CCC(NC/C(C)=C/c3ccccc3)C4)c2c1` (stereo not shown) [Example 56, [2-(6-Methoxy-quinolin-4-yl)-4,5,6,7-tetrahydro-2H-indazol-5-yl]-(2-methyl-3-phenyl-allyl)-amine], for which the MIC turned out to be 128 µg/mL (≈ 301 µM) in assay [1], 1 µg/mL (≈ 2.36 µM) with S. aureus ATCC13709 and 2 µg/mL (≈ 4.71 µM) with S. pneumoniae ATCC49619.
For `COc1ccc2nccc(-n3cc4c(n3)CCC(NCc3cc5c(cc3F)OCCO5)C4)c2c1` (stereo not shown) [Example 51, (7-Fluoro-2,3-dihydro-benzo[1,4]dioxin-6-ylmethyl)-[2-(6-methoxy-quinolin-4-yl)-4,5,6,7-tetrahydro-2H-indazol-5-yl]-amine], the results for the MIC (in assay [1]; with S. aureus ATCC13709; in the assay with S. pneumoniae ATCC49619) were greater than 128 µg/mL, 1 µg/mL (≈ 2.17 µM) and 1 µg/mL (≈ 2.17 µM), respectively.
